± gives the expanded uncertainty stated by the source.
Settings: Liquid, Vibrating tube method

C=CCCCCC [1-heptene]
Settings	mass density [kg/m3]
323.18 K, 50000 kPa	716.3 ± 2.1
323.18 K, 55000 kPa	719.7 ± 2.1
323.18 K, 60000 kPa	723.1 ± 2.2
323.18 K, 70000 kPa	729.6 ± 2.2
323.18 K, 80000 kPa	735.5 ± 2.2
323.19 K, 5000 kPa	676.4 ± 2
323.19 K, 15000 kPa	687.1 ± 2
323.19 K, 20000 kPa	692 ± 2
323.19 K, 90000 kPa	741.1 ± 2.3
323.19 K, 100000 kPa	746.4 ± 2.3
333.04 K, 100 kPa	661.5 ± 2
333.04 K, 500 kPa	662 ± 2
333.04 K, 1000 kPa	662.7 ± 2
333.05 K, 3000 kPa	665.3 ± 2
333.05 K, 5000 kPa	667.9 ± 2
333.05 K, 10000 kPa	673.8 ± 2
333.05 K, 15000 kPa	679.3 ± 2
333.05 K, 20000 kPa	684.5 ± 2.1
333.05 K, 25000 kPa	689.3 ± 2.1
333.05 K, 30000 kPa	693.8 ± 2.1
333.05 K, 35000 kPa	698.1 ± 2.1
333.05 K, 40000 kPa	702.2 ± 2.1
333.05 K, 45000 kPa	706.2 ± 2.1
333.05 K, 50000 kPa	709.9 ± 2.1
333.05 K, 55000 kPa	713.5 ± 2.1
333.05 K, 60000 kPa	717 ± 2.2
333.05 K, 70000 kPa	723.7 ± 2.2
333.05 K, 80000 kPa	729.9 ± 2.2
333.05 K, 90000 kPa	735.7 ± 2.3
333.05 K, 100000 kPa	741.1 ± 2.3
342.91 K, 100 kPa	652.7 ± 2
342.91 K, 500 kPa	653.3 ± 2
342.91 K, 1000 kPa	654 ± 2
342.91 K, 3000 kPa	656.9 ± 2
342.91 K, 15000 kPa	671.8 ± 2
342.91 K, 30000 kPa	687.1 ± 2.1
342.91 K, 35000 kPa	691.7 ± 2.1
342.92 K, 5000 kPa	659.6 ± 2
342.92 K, 10000 kPa	666 ± 2
342.92 K, 20000 kPa	677.4 ± 2.1
342.92 K, 25000 kPa	682.4 ± 2.1
342.92 K, 40000 kPa	696 ± 2.1
342.92 K, 45000 kPa	700.1 ± 2.1
342.92 K, 50000 kPa	703.9 ± 2.1
342.92 K, 55000 kPa	707.7 ± 2.2
342.92 K, 60000 kPa	711.3 ± 2.2
342.92 K, 70000 kPa	718.3 ± 2.2
342.92 K, 80000 kPa	724.6 ± 2.2
342.92 K, 90000 kPa	730.6 ± 2.3
342.92 K, 100000 kPa	736.2 ± 2.3
352.8 K, 100 kPa	644.3 ± 2
352.8 K, 500 kPa	644.9 ± 2
352.8 K, 40000 kPa	690 ± 2.1
352.8 K, 45000 kPa	694.3 ± 2.1
352.8 K, 50000 kPa	698.4 ± 2.1
352.8 K, 70000 kPa	713.2 ± 2.2
352.8 K, 80000 kPa	719.7 ± 2.2
352.8 K, 90000 kPa	725.9 ± 2.3
352.8 K, 100000 kPa	731.7 ± 2.3
352.81 K, 1000 kPa	645.7 ± 2
352.81 K, 3000 kPa	648.8 ± 2
352.81 K, 5000 kPa	651.6 ± 2
352.81 K, 10000 kPa	658.4 ± 2
352.81 K, 15000 kPa	664.7 ± 2
352.81 K, 20000 kPa	670.5 ± 2.1
352.81 K, 25000 kPa	675.8 ± 2.1
352.81 K, 30000 kPa	680.9 ± 2.1
352.81 K, 35000 kPa	685.6 ± 2.1
352.81 K, 55000 kPa	702.3 ± 2.2
352.81 K, 60000 kPa	706 ± 2.2
362.68 K, 100 kPa	633.6 ± 2
362.68 K, 500 kPa	634.3 ± 2
362.68 K, 100000 kPa	725.7 ± 2.3
362.69 K, 1000 kPa	635 ± 2
362.69 K, 3000 kPa	638.5 ± 2
362.69 K, 5000 kPa	641.7 ± 2
362.69 K, 20000 kPa	661.9 ± 2.1
362.69 K, 30000 kPa	672.8 ± 2.1
362.69 K, 35000 kPa	677.8 ± 2.1
362.69 K, 40000 kPa	682.5 ± 2.1
362.69 K, 45000 kPa	687 ± 2.1
362.69 K, 50000 kPa	691.2 ± 2.1
362.69 K, 55000 kPa	695.2 ± 2.2
362.69 K, 60000 kPa	699.1 ± 2.2
362.69 K, 70000 kPa	706.6 ± 2.2
362.69 K, 80000 kPa	713.4 ± 2.3
362.69 K, 90000 kPa	719.7 ± 2.3
362.7 K, 10000 kPa	649.1 ± 2
362.7 K, 15000 kPa	655.8 ± 2
362.7 K, 25000 kPa	667.6 ± 2.1

From the NIST ThermoML archive (doi:10.1021/acs.jced.8b00229)
